In patent US11324742B2, “Treatment of demyelinating diseases” (Victoria Link Ltd., priority 2018, dated 2022):
Read-outs that look alike come from different tables or passages of the source.

Experiments:
[1] = test system: cuprizone demyelination disease model of MS; experiment: Cuprizone model, von Frey mechanical withdrawal threshold; type: in vivo, female C57BL/6 mice; settings: 0.1 mg/kg/i.p. daily
[2] = cited from earlier work
[3] = test system: itch; settings: human; cited from earlier work
[4] = test system: Substance P induced scratch; settings: cited from earlier work
[5] = test system: infiltrating immune cells (CD45high) in brain of EAE mice; experiment: EAE model, immune cell infiltration into the brain by flow cytometry; type: in vivo, female C57BL/6 mice
[6] = test system: myelin in spinal cord of EAE mice; experiment: EAE model, TEM of spinal cord sections; type: in vivo, female C57BL/6 mice; settings: 0.03 mg/kg daily i.p. from day 17; day 45
[7] = test system: myelin in spinal cord of EAE mice; experiment: EAE model, luxol fast blue staining of spinal cord (demyelination); type: in vivo, female C57BL/6 mice
[8] = test system: Morphine induced scratch; settings: SC, EMA/CHMP/138212/2014; cited from earlier work
[9] = test system: Substance P induced scratch; experiment: Substance P induced scratch mouse model; settings: SC or IV administration, top two rows of the table only, read-out: average in vivo efficacy ED50 for itch model
[10] = test system: myelin in corpus callosum of cuprizone-treated mice; experiment: Cuprizone model, TEM of corpus callosum (g-ratio, myelinated axons, myelin area); type: in vivo, female C57BL/6 mice
[11] = test system: cuprizone demyelination disease model of MS; experiment: Cuprizone model of demyelination, weight change; type: in vivo, female C57BL/6 mice
[12] = test system: activated GFAP+ astrocytes in the spinal cord of EAE mice; experiment: EAE model, GFAP immunohistochemistry of spinal cord (activated astrocytes); type: in vivo, female C57BL/6 mice; settings: 0.01 mg/kg daily i.p. from day 17; day 45
[13] = test system: cuprizone model of demyelination; experiment: Cuprizone model, rotarod assay (coordination); type: in vivo, female C57BL/6 mice; settings: 0.1 mg/kg daily i.p.; week 9 relative to week 5
[14] = test system: leucocyte infiltration into the spinal cord of EAE mice; experiment: EAE model, H&E staining of spinal cord (leucocyte infiltration); type: in vivo, female C57BL/6 mice; settings: 0.01 mg/kg daily i.p. from onset; chronic phase
[15] = test system: Histamine induced scratch; settings: PO, Togashi et al. (2002); cited from earlier work
[16] = test system: lymphocyte populations in the spleen of EAE mice; experiment: EAE model, splenocytes by flow cytometry; type: in vivo, female C57BL/6 mice; settings: 0.01 mg/kg daily i.p. from onset
[17] = 0.1 mg/kg/i.p. daily from day 28, day 70

CN(C(=O)/C=C/c1ccoc1)[C@@H]1CC[C@@]2(O)[C@H]3Cc4ccc(O)c5c4[C@@]2(CCN3CC2CC2)[C@H]1O5 [nalfurafine, (E)-N-[(4R,4aS,7R,7aR,12bS)-3-(cyclopropylmethyl)-4a,9-dihydroxy-1,2,4,5,6,7,7a,13-octahydro-4,12-methanobenzofuro[3,2-e]isoquinoline-7-yl]-3-(furan-3-yl)-N-methylprop-2-enamide]
mechanical withdrawal threshold (von Frey) ([1]; pre vs post treatment): reduced to baseline levels
mechanical threshold scores (von Frey) ([1]; vs vehicle treated mice): improved mechanical threshold scores
Bioavailability ([2]; intravenous (IV)): 100%
Bioavailability ([2]; oral (PO) administration): ~32%
Bioavailability ([2]; subcutaneous (s.c.)): 96%
effective dose in humans for itch [3]: 2.5 μg/body/day
Complete Inhibition ([4]; IV, EMA/CHMP/138212/2014): 7.5 to 10 µg/kg
ED50 ([4]; IV, EMA/CHMP/138212/2014): 3.77 µg/kg
Inhibition reached at the dose given under Complete Inhibition ([4]; PO, 100 μg/kg, EMA/CHMP/138212/2014): (66%)
Complete Inhibition ([4]; PO, EMA/CHMP/138212/2014): 100 µg/kg
ED50 ([4]; PO, EMA/CHMP/138212/2014): 9.61 µg/kg
Complete Inhibition ([4]; PO, Togashi et al. (2002)): 100 µg/kg
ED50 ([4]; PO, Togashi et al. (2002)): 19.6 µg/kg
Complete Inhibition ([4]; SC, EMA/CHMP/138212/2014): 10 µg/kg
ED50 ([4]; SC, EMA/CHMP/138212/2014): 1.65 µg/kg
number of infiltrating immune cells in brain (ratio to microglia) ([5]; 0.03 mg/kg daily i.p. from day 17, day 45): significantly reduced
number of infiltrating immune cells in brain (ratio to microglia) ([5]; 0.03 and 0.01 mg/kg daily i.p. from onset, chronic phase (>24 days)): significantly reduced
myelination of nerve axons in spinal cord (TEM) [6]: healthy and well-myelinated
lesion load and myelin density in ventral horn (luxol fast blue) ([7]; 0.01 mg/kg daily i.p. from onset, chronic phase (Example 25)): reduces this lesion load and demyelination
% demyelination of spinal cord (luxol fast blue) ([7]; 0.03 or 0.01 mg/kg daily i.p. from onset, chronic phase): significant reduction
Complete Inhibition [8]: 5 to 10 µg/kg
ED50 [8]: 2.34 µg/kg
ED50 [9]: ~2.71 µg/kg
myelin in corpus callosum (TEM, g-ratio) ([10]; 0.1 mg/kg daily i.p. from week 4, day 65 (Example 9)): more myelin was detected
area of myelin staining per TEM image [10, 17]: percentage increase in area of myelination
mean g-ratio (corpus callosum) [10, 17]: 0.75±0.15
number of myelinated axons vs non-myelinated axons [10, 17]: percentage increase in the number of myelinated axons
% weight change in recovery phase ([11]; 0.1 mg/kg daily i.p. from day 28, cuprizone 35 days, vs vehicle or U-50488): enhances recovery of the lost weight faster
% weight change (reversal of cuprizone weight loss) ([11]; 0.1 mg/kg daily i.p. from week 4, 0.3% cuprizone 5 weeks, vs vehicle (Example 7)): reversed significantly more effectively
number of activated GFAP+ astrocytes per section [12]: significantly reduces
rotarod performance (coordination) [13]: reversed
leucocyte infiltration score (0-3), H&E [14]: reduction of infiltrating leucocytes
Complete Inhibition [15]: 30 to 100 µg/kg
ED50 [15]: 7.3 µg/kg
proportion of major lymphocyte populations in spleen (CD4, CD8, B220; % live leukocytes) ([16]; 27 days post treatment initiation): do not alter
Teff:cm ratio (effector to central memory CD4 T cells) ([16]; 27 days, vs vehicle): reduced ratio
overall number of CD4 T cells in spleen ([16]; 27 days, vs vehicle): the same
